# Results as given in patent publication US8236794B2, “Treatment of mesothelioma” (Ed. Geistlich Soehne AG fuer Chemische Industrie, priority 2003, dated 2012).
# Entries after “also recorded” stand apart in the source; their conditions may differ.
# Legend:
# [1] = tested on: human malignant glioma cell line LN-229; experiment: Cell viability and Fas-ligand mediated apoptosis in glioma cells; type: cell-based; conditions: LN-229 cells; for Effect on destruction of cells by Fas-ligand: combined with Fas-ligand
# Description: The present invention relates to the ability of methylol transfer agents, such as taurolidine, to induce cell toxicity, and to enhance Fas-ligand mediated apoptosis. Both taurolidine and its congener taurultam enhance the apoptotic effect of Fas-ligand in cancer cells at drug concentrations which per se show practically no effect on cell viability. For example, in the human malignant glioma cell line LN-229 cell viability was reduced directly following incubation with taurolidine or taurultam alone. […] Thus, the use of methylol transfer agents to induce apoptotic cell death provides a means for treating mesothelioma as in the present invention.
# [2] = cited from earlier work
# malignant mesothelioma = experiment: Therapy of mesothelioma with taurolidine: single-patient case, two treatment cycles, intravenous plus intrapleural; type: in vivo, human
# Excerpt: The following is a case involving treatment of an individual for two treatment cycles. Patient: Diagnosis: Malignant mesothelioma two yrs. ago (stage III according to IMIG stadiation) Prior treatments: Treated with CT with Cis-Platinum/Gemcitabine, Local recurrency with pleural effusion. Treated with taurolidine 2%, Two cycles of three weeks with taurolidine both intravenous and intrapleural administration I.V: 4 bottles daily for 5 days for three weeks (2 cycles) I.P: 1 bottle daily for 5 days for three weeks (2 cycles)
Structure (SMILES),Effect on destruction of cells by Fas-ligand [1],Cell viability following incubation with compound alone [1],Water solubility [2],"Main side effects, I.P. (intrapleural) administration (malignant mesothelioma; I.P. 1 bottle taurolidine 2% daily for 5 days for three weeks (2 cycles))","Main side effects, I.V. administration (malignant mesothelioma; I.V. 4 bottles taurolidine 2% daily for 5 days for three weeks (2 cycles))","Side effects obliging discontinuance of the treatment (malignant mesothelioma; I.V. and I.P. administration, 2 cycles)","Clinical response (malignant mesothelioma; same patient and regimen, preliminary response evaluation)","Patient's condition after treatment (malignant mesothelioma; two treatment cycles, I.V. and I.P.)"
O=S1(=O)CCNCN1 [taurultam],enhanced the destruction of LN-229 cells by Fas-ligand,reduced,,,,,,
"O=S1(=O)CCN(CN2CCS(=O)(=O)NC2)CN1 [taurolidine, Bis-(1,1-dioxoperhydro-1,2,4-thiadiazinyl-4)methane]",enhanced the destruction of LN-229 cells by Fas-ligand,reduced,up to 2%,Local burning at the site of instillation; also recorded: Thoracic burning of significant grade,Mild local burning at the site of instillation; also recorded: Transient symptomatic hypthension,None,Highly significant reduction of the dyspnea,marked improvement
